Test results taken from patent US9302999B2, “Substituted triazoles as herbicides” (E. I. DU PONT DE NEMOURS AND COMPANY, priority 2012, dated 2016).

Tests used:
Assay type in all cases: in vivo
[1] = test system: winter wheat (Triticum aestivum); assay: Test C pre-/postemergence: winter wheat
Summary of the method: (§1)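 Visual injury scored 0–100 (100 = complete control) against untreated controls after 13–15 greenhouse days. Surfactant-containing solvent formulations applied either to soil after sowing (loam/sand) or over 1- to 4-leaf plants, 2–18 cm tall.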

[2] = test system: velvetleaf (Abutilon theophrasti); assay: Test C pre-/postemergence: velvetleaf
Summary of the method: as §1

corn (Zea mays) = assay: Test C pre-/postemergence: corn
Summary of the method: as §1

[3] = test system: foxtail, giant (giant foxtail, Setaria faberii); assay: Test C pre-/postemergence: foxtail, giant
Summary of the method: as §1

[4] = test system: blackgrass (Alopecurus myosuroides); assay: Test C pre-/postemergence: blackgrass
Summary of the method: as §1

rice (Oryza sativa) = assay: Test B flooded paddy: rice; details: Flood; 250 g ai/ha; applied to paddy water at 2-leaf stage; visually evaluated after 13 to 15 days
Summary of the method: (§2)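 At two leaves, seedlings received the test compound via the paddy water, pots having been flooded 3 cm over the soil surface and kept so. Greenhouse-held for 13 to 15 days, then judged by eye against controls on a scale running 0 (no effect) to 100 (complete control).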

[5] = test system: johnsongrass (Sorghum halepense); assay: Test C pre-/postemergence: johnsongrass
Summary of the method: as §1

kochia (Kochia scoparia) = assay: Test C pre-/postemergence: kochia; details: Postemergence
Summary of the method: as §1

soybean (Glycine max) = assay: Test C pre-/postemergence: soybean
Summary of the method: as §1

[6] = test system: pigweed (Amaranthus retroflexus); assay: Test C pre-/postemergence: pigweed
Summary of the method: as §1

[7] = test system: barnyardgrass (Echinochloa crus-galli); assay: Test B flooded paddy: barnyardgrass; details: Flood; 250 g ai/ha; applied to paddy water at 2-leaf stage; visually evaluated after 13 to 15 days
Summary of the method: as §2

[8] = Postemergence, 31 g ai/ha, scale 0 to 100 (0 no effect, 100 complete control)
[9] = Postemergence, 62 g ai/ha, scale 0 to 100 (0 no effect, 100 complete control)
[10] = Postemergence, 125 g ai/ha, scale 0 to 100, 0 no effect, 100 complete control
[11] = Postemergence, 250 g ai/ha, scale 0 to 100
[12] = Preemergence, 62 g ai/ha, scale of 0 to 100, 0 is no effect, 100 is complete control
[13] = Preemergence, 125 g ai/ha, scale 0 to 100, 0 no effect, 100 complete control
[14] = Preemergence, 250 g ai/ha, scale 0 to 100, 0 no effect, 100 complete control
[15] = Preemergence, 31 g ai/ha, scale of 0 to 100, 0 is no effect, 100 is complete control
[16] = 31 g ai/ha, scale 0 to 100 (0 no effect, 100 complete control)
[17] = 62 g ai/ha, scale 0 to 100 (0 no effect, 100 complete control)
[18] = 125 g ai/ha, scale 0 to 100, 0 no effect, 100 complete control
[19] = Postemergence, 16 g ai/ha, scale 0 to 100, 0 no effect, 100 complete control
[20] = Preemergence, 16 g ai/ha, scale 0 (no effect) to 100 (complete control)

SMILES: Cc1nn(-c2ccc(F)c(C(F)(F)F)c2)nc1Cc1ccnc(C(F)(F)F)c1 [Compound 156]
- Plant response rating, Wheat [1, 8]: 5
- Plant response rating, Wheat [1, 9]: 15
- Plant response rating, Wheat [1, 10]: 25
- Plant response rating, Wheat [1, 11]: 30
- Plant response rating, Wheat [1, 12]: 5
- Plant response rating, Wheat [1, 13]: 20
- Plant response rating, Wheat [1, 14]: 35
- Plant response rating, Velvetleaf [2, 8]: 45
- Plant response rating, Velvetleaf [2, 9]: 50
- Plant response rating, Velvetleaf [2, 10]: 60
- Plant response rating, Velvetleaf [2, 11]: 80
- Plant response rating, Velvetleaf [2, 15]: 5
- Plant response rating, Velvetleaf [2, 12]: 40
- Plant response rating, Velvetleaf [2, 13]: 40
- Plant response rating, Velvetleaf [2, 14]: 100
- Plant response rating, Corn (corn (Zea mays); [9]): 15
- Plant response rating, Corn (corn (Zea mays); [10]): 25
- Plant response rating, Corn (corn (Zea mays); [11]): 30
- Plant response rating, Corn (corn (Zea mays); [15]): 5
- Plant response rating, Corn (corn (Zea mays); [12]): 5
- Plant response rating, Corn (corn (Zea mays); [13]): 10
- Plant response rating, Corn (corn (Zea mays); [14]): 30
- Plant response rating, Foxtail, Giant [3, 8]: 10
- Plant response rating, Foxtail, Giant [3, 9]: 15
- Plant response rating, Foxtail, Giant [3, 10]: 25
- Plant response rating, Foxtail, Giant [3, 11]: 50
- Plant response rating, Foxtail, Giant [3, 15]: 90
- Plant response rating, Foxtail, Giant [3, 12]: 90
- Plant response rating, Foxtail, Giant [3, 13]: 90
- Plant response rating, Foxtail, Giant [3, 14]: 95
- Plant response rating, Blackgrass [4, 8]: 50
- Plant response rating, Blackgrass [4, 9]: 60
- Plant response rating, Blackgrass [4, 10]: 75
- Plant response rating, Blackgrass [4, 11]: 85
- Plant response rating, Blackgrass [4, 15]: 85
- Plant response rating, Blackgrass [4, 12]: 90
- Plant response rating, Blackgrass [4, 13]: 90
- Plant response rating, Blackgrass [4, 14]: 90
- Plant response rating, Rice (0 to 100 scale, 0 is no effect, 100 is complete control) (rice (Oryza sativa)): 50
- Plant response rating, Johnsongrass [5, 8]: 45
- Plant response rating, Johnsongrass [5, 9]: 50
- Plant response rating, Johnsongrass [5, 10]: 65
- Plant response rating, Johnsongrass [5, 11]: 85
- Plant response rating, Johnsongrass [5, 15]: 75
- Plant response rating, Johnsongrass [5, 12]: 90
- Plant response rating, Johnsongrass [5, 13]: 90
- Plant response rating, Johnsongrass [5, 14]: 95
- Plant response rating, Kochia (kochia (Kochia scoparia); [16]): 90
- Plant response rating, Kochia (kochia (Kochia scoparia); [17]): 90
- Plant response rating, Kochia (kochia (Kochia scoparia); [18]): 90
- Plant response rating, Kochia (kochia (Kochia scoparia); 250 g ai/ha, scale 0 to 100): 95
- Plant response rating, Soybean (soybean (Glycine max); [8]): 55
- Plant response rating, Soybean (soybean (Glycine max); [9]): 80
- Plant response rating, Soybean (soybean (Glycine max); [10]): 95
- Plant response rating, Soybean (soybean (Glycine max); [11]): 95
- Plant response rating, Soybean (soybean (Glycine max); [15]): 5
- Plant response rating, Soybean (soybean (Glycine max); [12]): 10
- Plant response rating, Soybean (soybean (Glycine max); [13]): 25
- Plant response rating, Soybean (soybean (Glycine max); [14]): 25
- Plant response rating, Pigweed [6, 8]: 75
- Plant response rating, Pigweed [6, 9]: 90
- Plant response rating, Pigweed [6, 10]: 95
- Plant response rating, Pigweed [6, 11]: 100
- Plant response rating, Pigweed [6, 15]: 100
- Plant response rating, Pigweed [6, 12]: 100
- Plant response rating, Pigweed [6, 13]: 100
- Plant response rating, Pigweed [6, 14]: 100
- Plant response rating, Barnyardgrass (0 to 100 scale, 0 is no effect, 100 is complete control) [7]: 75

SMILES: FCc1nn(-c2ccc(F)cc2)nc1Oc1ccnc(C(F)(F)F)c1 [Compound 160]
- Plant response rating, Wheat [1, 19]: 5
- Plant response rating, Wheat [1, 8]: 5
- Plant response rating, Wheat [1, 9]: 25
- Plant response rating, Wheat [1, 10]: 25
- Plant response rating, Wheat [1, 20]: 0
- Plant response rating, Wheat [1, 12]: 15
- Plant response rating, Wheat [1, 13]: 40
- Plant response rating, Velvetleaf [2, 19]: 20
- Plant response rating, Velvetleaf [2, 8]: 30
- Plant response rating, Velvetleaf [2, 9]: 50
- Plant response rating, Velvetleaf [2, 10]: 75
- Plant response rating, Velvetleaf [2, 20]: 0
- Plant response rating, Velvetleaf [2, 15]: 5
- Plant response rating, Velvetleaf [2, 12]: 30
- Plant response rating, Velvetleaf [2, 13]: 30
- Plant response rating, Corn (corn (Zea mays); [19]): 15
- Plant response rating, Corn (corn (Zea mays); [8]): 15
- Plant response rating, Corn (corn (Zea mays); [9]): 20
- Plant response rating, Corn (corn (Zea mays); [10]): 25
- Plant response rating, Corn (corn (Zea mays); [20]): 5
- Plant response rating, Corn (corn (Zea mays); [15]): 5
- Plant response rating, Corn (corn (Zea mays); [12]): 5
- Plant response rating, Corn (corn (Zea mays); [13]): 5
- Plant response rating, Foxtail, Giant [3, 19]: 15
- Plant response rating, Foxtail, Giant [3, 8]: 20
- Plant response rating, Foxtail, Giant [3, 10]: 75
- Plant response rating, Foxtail, Giant [3, 20]: 80
- Plant response rating, Foxtail, Giant [3, 15]: 100
- Plant response rating, Foxtail, Giant [3, 12]: 100
- Plant response rating, Foxtail, Giant [3, 13]: 100
- Plant response rating, Blackgrass [4, 19]: 25
- Plant response rating, Blackgrass [4, 8]: 35
- Plant response rating, Blackgrass [4, 9]: 45
- Plant response rating, Blackgrass [4, 10]: 65
- Plant response rating, Blackgrass [4, 20]: 0
- Plant response rating, Blackgrass [4, 15]: 40
- Plant response rating, Blackgrass [4, 12]: 90
- Plant response rating, Blackgrass [4, 13]: 90
- Plant response rating, Rice (0 to 100 scale, 0 is no effect, 100 is complete control) (rice (Oryza sativa)): 55
- Plant response rating, Johnsongrass [5, 19]: 10
- Plant response rating, Johnsongrass [5, 8]: 15
- Plant response rating, Johnsongrass [5, 10]: 30
- Plant response rating, Johnsongrass [5, 20]: 85
- Plant response rating, Johnsongrass [5, 15]: 100
- Plant response rating, Johnsongrass [5, 12]: 100
- Plant response rating, Johnsongrass [5, 13]: 100
- Plant response rating, Kochia (kochia (Kochia scoparia); 16 g ai/ha, scale 0 to 100, 0 no effect, 100 complete control): 90
- Plant response rating, Kochia (kochia (Kochia scoparia); [16]): 90
- Plant response rating, Kochia (kochia (Kochia scoparia); [17]): 95
- Plant response rating, Kochia (kochia (Kochia scoparia); [18]): 95
- Plant response rating, Soybean (soybean (Glycine max); [19]): 15
- Plant response rating, Soybean (soybean (Glycine max); [8]): 25
- Plant response rating, Soybean (soybean (Glycine max); [9]): 25
- Plant response rating, Soybean (soybean (Glycine max); [10]): 30
- Plant response rating, Soybean (soybean (Glycine max); [20]): 0
- Plant response rating, Soybean (soybean (Glycine max); [15]): 5
- Plant response rating, Soybean (soybean (Glycine max); [12]): 20
- Plant response rating, Soybean (soybean (Glycine max); [13]): 20
- Plant response rating, Pigweed [6, 19]: 95
- Plant response rating, Pigweed [6, 8]: 95
- Plant response rating, Pigweed [6, 9]: 98
- Plant response rating, Pigweed [6, 10]: 98
- Plant response rating, Pigweed [6, 20]: 90
- Plant response rating, Pigweed [6, 15]: 100
- Plant response rating, Pigweed [6, 12]: 100
- Plant response rating, Pigweed [6, 13]: 100
- Plant response rating, Barnyardgrass (0 to 100 scale, 0 is no effect, 100 is complete control) [7]: 65
